The values below come from ChEMBL document CHEMBL1201862, “PubChem BioAssay data set” (2004).

Data set [1] can be described thus: blockers of HIV-1 ZM109 envelope-driven cell-cell fusion – HeLa effector, CEM target cells, luciferase, cherry-pick, dose response (AID 652058).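 Further: luciferase signal from HIV-1 Env mediated cell-cell fusion of effector and target cells.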 Type of data set: functional, cell-based.
Data set [2] can be described thus: HIV-1 AD8 envelope cell-cell fusion blockers – cherry-pick, dose response (AID 652062).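 Further: luciferase signal from cell-cell fusion driven by HIV-1 clade B AD8 Env; potency is for inhibitors of fusion seen as a drop in luminescence.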 Format: functional, cell-based.
Data set [3] in a line: blockers of HIV-1 envelope-mediated cell-cell fusion – cherry-pick, dose response (AID 652057). Format: functional, cell-based.
Data set [4] can be described thus: viability loss in CEM21 cells – cell-based, CellTiter-Glo luminescence, cherry-picked, cytotoxicity control for viral fusion inhibitor project, dose response (AID 652042).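 Further: potency for signal decrease meaning cytotoxicity.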 Format: functional.
Data set [5] has as its target T1, Cytochrome P450 2C9 (Homo sapiens, UniProt P11712).
The next data set deals with Cytochrome P450 2D6 (Homo sapiens, UniProt P10635).
Cytochrome P450 2D6, sequence (P10635 whole entry): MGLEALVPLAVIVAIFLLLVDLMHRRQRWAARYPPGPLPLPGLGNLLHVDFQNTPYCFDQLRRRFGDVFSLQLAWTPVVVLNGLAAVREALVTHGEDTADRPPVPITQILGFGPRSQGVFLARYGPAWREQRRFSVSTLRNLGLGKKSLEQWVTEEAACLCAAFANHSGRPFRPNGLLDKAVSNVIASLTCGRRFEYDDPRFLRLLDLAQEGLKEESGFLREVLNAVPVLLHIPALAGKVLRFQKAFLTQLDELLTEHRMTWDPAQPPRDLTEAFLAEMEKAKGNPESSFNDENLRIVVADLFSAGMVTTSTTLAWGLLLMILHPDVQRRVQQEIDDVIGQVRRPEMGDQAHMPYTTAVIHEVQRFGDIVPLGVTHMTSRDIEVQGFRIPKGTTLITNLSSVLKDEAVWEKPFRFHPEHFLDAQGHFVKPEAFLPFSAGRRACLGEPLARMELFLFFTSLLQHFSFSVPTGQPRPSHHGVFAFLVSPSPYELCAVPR
For another data set, the target named is T2, Cytochrome P450 1A2 (Homo sapiens, UniProt P05177).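 Further: PubChem cytochrome P450 panel assay, CYP1A2 panel member.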
T2 sequence (P05177 whole entry): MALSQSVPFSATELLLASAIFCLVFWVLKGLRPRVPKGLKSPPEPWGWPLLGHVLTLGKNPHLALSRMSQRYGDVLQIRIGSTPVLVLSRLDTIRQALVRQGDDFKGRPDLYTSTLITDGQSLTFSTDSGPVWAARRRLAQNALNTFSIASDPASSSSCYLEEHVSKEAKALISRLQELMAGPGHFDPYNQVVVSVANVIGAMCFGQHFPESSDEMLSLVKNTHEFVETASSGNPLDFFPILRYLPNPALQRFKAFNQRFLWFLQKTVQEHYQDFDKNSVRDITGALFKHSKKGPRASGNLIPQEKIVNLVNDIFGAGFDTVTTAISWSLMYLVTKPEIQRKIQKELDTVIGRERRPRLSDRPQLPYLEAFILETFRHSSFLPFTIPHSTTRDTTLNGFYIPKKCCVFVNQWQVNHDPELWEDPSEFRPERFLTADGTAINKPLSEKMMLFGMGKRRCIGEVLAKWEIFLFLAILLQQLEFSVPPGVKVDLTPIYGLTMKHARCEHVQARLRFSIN

The next data set has as its system H9c2. Description: cells. Format: functional, cell-based. Particulars: Rattus norvegicus, H9c2, Myocardium.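 Further: confirmatory concentration-response retest of ultra-high-throughput screening hits for modulation of myocardial damage; cell death induced by hydrogen peroxide oxidative stress; compound pretreatment for 60 min then peroxide exposure for 2 h; potency is for protecting the cells against peroxide damage rather than for killing them.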
Data set [6] deals with T3, Short transient receptor potential channel 4 (Mus musculus, UniProt Q9QUQ5).
T3 sequence (Q9QUQ5 whole entry): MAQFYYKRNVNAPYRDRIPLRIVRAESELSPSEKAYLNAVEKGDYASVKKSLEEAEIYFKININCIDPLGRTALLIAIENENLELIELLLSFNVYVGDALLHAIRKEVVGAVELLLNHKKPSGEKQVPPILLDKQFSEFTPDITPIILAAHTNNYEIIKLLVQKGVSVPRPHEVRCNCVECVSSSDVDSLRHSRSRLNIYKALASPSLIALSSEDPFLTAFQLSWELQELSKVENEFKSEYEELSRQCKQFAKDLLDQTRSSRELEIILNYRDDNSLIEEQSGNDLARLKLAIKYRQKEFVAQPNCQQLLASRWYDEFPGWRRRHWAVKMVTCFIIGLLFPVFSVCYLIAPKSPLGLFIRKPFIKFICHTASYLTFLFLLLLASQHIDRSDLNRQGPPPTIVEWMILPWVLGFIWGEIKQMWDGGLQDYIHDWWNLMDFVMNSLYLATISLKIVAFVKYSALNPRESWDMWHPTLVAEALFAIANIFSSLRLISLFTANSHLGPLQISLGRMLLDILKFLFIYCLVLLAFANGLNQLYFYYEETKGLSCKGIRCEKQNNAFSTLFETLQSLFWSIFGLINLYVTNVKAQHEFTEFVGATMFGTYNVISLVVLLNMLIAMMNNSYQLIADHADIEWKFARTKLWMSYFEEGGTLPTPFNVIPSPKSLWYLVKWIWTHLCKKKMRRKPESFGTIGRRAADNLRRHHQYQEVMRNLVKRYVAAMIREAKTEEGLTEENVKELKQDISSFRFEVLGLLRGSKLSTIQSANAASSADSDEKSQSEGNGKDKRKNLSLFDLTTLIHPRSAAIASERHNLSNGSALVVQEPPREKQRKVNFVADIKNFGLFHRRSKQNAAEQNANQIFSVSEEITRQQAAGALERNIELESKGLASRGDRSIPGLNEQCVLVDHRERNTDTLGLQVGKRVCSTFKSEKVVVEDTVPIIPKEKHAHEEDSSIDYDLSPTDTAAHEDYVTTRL
Description: block of DAMGO-driven TRPC4 calcium entry – cell-based, HEK293 TRPC4/mu-opioid, Fluo-4 calcium, dose response (AID 434942).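 Further: potency of inhibitors blocking the TRPC4 calcium response.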 Type of data set: functional.

Data set [7] in a line: intracellular Trypanosoma cruzi inhibitors in host cells – cell-based, plate reader, cherry-pick samples, set 3, dose response (AID 651818).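 Further: compounds incubated with infected cells for about four days.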 Format: functional.
Data set [8] in a line: off-target signal loss in HeLa-CEM21 co-culture – HeLa F-luc CTL cells, cherry-picked, counter-screen for HIV-1 Env fusion inhibitor project, dose response (AID 652040).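 Further: potency for signal decrease marking cytotoxic or nonspecific inhibition.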 Format: functional, cell-based.
In data set [9] the target is T1, Cytochrome P450 2C9. The source holds these as a separate data set.
Another data set concerns the target Cytochrome P450 2C19 (Homo sapiens, UniProt P33261). The data set is described as follows: Cytochrome panel assay with activity outcomes. Panel member name: p450-cyp2c19 Compounds with AC50 equal or less than 10 uM are considered active. Type of data set: functional.
Data set [10] in a line: alpha-synuclein stem-loop luciferase translation blockers – H4 neuroglioma cells, luminescence, confirmation (AID 1988). Type of data set: functional, cell-based.
Data set [11] can be described thus: luciferase reporter signal suppression in cells – H4 neuroglioma cells, luminescence, dose response (AID 1990). Type of data set: functional, cell-based.
The nature of data set [12]: Luminescence Cell-Based Dose Response HTS to Identify Inhibitors of 5'UTR Stem-Loop Driven Prion Protein mRNA Translation in H4 Neuroglioblastoma Cells. [Related pubchem assays: 1827 (Project Summary), 1813 (Primary HTS)]. Type of data set: functional.
The target in data set [13] is T4, Microphthalmia-associated transcription factor (Homo sapiens, UniProt O75030).
T4 sequence (O75030 whole entry): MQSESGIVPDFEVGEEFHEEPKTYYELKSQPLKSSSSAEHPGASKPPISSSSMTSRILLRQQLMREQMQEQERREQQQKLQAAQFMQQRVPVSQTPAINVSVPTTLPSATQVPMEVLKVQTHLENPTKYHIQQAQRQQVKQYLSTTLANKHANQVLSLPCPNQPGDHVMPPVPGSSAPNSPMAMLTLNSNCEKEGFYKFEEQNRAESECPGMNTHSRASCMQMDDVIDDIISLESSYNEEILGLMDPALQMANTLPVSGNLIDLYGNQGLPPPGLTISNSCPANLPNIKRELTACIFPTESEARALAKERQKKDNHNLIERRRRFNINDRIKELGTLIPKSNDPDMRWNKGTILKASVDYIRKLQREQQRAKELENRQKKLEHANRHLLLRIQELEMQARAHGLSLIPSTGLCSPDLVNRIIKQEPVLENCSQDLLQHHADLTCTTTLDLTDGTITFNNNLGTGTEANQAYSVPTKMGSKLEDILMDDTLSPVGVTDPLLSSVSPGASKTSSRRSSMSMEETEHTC
The data set is described as follows: reducers of TRPM1 reporter luminescence, concentration series – cell-based, SK-MEL-5, cherry-picked, set 3, MITF inhibitor project, dose response (AID 493073).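 Further: SK-MEL-5 melanoma cells with luciferase driven by the MITF target TRPM1 promoter.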 Format: functional.

The target of another data set is Cytochrome P450 3A4 (Homo sapiens, UniProt P08684).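 Further: CYP3A4 tested as one member of a cytochrome P450 panel screen.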
Cytochrome P450 3A4, sequence (P08684 whole entry): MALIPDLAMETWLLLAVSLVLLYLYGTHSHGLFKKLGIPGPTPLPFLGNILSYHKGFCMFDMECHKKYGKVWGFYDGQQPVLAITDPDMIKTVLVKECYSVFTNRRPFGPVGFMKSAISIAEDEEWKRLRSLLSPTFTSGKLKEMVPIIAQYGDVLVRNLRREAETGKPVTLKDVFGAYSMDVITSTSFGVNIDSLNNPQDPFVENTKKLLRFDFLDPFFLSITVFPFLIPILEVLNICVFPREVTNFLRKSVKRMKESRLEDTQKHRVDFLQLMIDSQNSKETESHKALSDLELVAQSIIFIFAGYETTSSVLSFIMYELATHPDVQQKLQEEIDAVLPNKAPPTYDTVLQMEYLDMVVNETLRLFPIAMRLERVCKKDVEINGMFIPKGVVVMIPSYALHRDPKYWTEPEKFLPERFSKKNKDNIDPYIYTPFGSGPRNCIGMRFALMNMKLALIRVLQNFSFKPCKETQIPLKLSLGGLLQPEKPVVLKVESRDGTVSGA
The test system of another data set is HEK293. Description: cells. Particulars: Homo sapiens.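 Further: cells exposed to compound for 14 hours overnight before viability readout.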
The target in the next data set is Tumor necrosis factor (Homo sapiens, UniProt P01375). The data set is described as follows: analog potency on TNFa NF-kB signaling – cell-based, revised, SAR follow-up (AID 2337). Format: functional.
Tumor necrosis factor, sequence (P01375 whole entry): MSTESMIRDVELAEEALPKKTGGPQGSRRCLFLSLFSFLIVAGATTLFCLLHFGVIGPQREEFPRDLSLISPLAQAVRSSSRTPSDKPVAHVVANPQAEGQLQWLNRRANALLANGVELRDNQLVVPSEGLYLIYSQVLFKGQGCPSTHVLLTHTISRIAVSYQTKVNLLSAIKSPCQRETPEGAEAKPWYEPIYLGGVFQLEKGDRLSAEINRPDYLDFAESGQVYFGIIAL
Data set [14] concerns the target T5, Polyadenylate-binding protein 1 (Homo sapiens, UniProt P11940). The data set is described as follows: MLLE binding blockers, Cy5 peptide tracer – biochemical, fluorescence polarization, Cy5-PAM2 peptide, secondary, miRNA deadenylation inhibitor project, dose response (AID 602260). Particulars: read-out: IC50_Mean. Type of data set: functional.
Data set [15] deals with T5, Polyadenylate-binding protein 1. The data set is described as follows: MLLE domain peptide-binding blockers, IC50 – biochemical, fluorescence polarization, FITC-PAM2 peptide, dose response (AID 602259). Particulars: read-out: IC50_Mean. Type of data set: functional.

The source made the active and inactive calls.

T1 sequence (P11712 whole entry): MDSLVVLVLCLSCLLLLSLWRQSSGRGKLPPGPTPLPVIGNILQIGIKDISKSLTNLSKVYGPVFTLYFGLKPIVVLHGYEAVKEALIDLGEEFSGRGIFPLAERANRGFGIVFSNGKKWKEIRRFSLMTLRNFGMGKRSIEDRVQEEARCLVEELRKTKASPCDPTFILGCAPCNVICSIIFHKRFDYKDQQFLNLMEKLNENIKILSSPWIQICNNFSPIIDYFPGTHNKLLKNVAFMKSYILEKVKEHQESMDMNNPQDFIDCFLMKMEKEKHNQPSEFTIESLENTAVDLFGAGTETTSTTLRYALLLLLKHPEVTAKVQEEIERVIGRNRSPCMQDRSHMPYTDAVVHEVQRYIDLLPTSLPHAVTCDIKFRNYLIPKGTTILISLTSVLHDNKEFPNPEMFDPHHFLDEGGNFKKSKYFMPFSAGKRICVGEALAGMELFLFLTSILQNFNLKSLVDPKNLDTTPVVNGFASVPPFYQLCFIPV
T5 sequence (P11940 whole entry, the tested form may be a part): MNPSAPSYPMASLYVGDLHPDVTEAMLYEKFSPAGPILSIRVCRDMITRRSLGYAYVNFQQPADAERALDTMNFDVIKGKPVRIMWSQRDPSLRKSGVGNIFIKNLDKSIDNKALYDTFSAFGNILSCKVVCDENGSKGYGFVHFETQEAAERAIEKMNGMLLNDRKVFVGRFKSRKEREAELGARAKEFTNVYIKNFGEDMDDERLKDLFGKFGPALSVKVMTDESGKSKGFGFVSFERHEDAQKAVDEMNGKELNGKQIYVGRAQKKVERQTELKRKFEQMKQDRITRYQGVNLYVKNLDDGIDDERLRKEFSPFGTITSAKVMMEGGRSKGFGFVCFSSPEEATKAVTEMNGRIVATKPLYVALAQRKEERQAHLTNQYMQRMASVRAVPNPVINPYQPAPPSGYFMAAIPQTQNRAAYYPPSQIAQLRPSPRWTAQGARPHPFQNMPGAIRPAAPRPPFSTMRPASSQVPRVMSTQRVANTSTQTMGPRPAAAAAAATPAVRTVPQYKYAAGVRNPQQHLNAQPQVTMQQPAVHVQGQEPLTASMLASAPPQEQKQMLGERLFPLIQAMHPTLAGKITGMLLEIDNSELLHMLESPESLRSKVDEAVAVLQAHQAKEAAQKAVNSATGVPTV
Cytochrome P450 2C19, sequence (P33261 whole entry): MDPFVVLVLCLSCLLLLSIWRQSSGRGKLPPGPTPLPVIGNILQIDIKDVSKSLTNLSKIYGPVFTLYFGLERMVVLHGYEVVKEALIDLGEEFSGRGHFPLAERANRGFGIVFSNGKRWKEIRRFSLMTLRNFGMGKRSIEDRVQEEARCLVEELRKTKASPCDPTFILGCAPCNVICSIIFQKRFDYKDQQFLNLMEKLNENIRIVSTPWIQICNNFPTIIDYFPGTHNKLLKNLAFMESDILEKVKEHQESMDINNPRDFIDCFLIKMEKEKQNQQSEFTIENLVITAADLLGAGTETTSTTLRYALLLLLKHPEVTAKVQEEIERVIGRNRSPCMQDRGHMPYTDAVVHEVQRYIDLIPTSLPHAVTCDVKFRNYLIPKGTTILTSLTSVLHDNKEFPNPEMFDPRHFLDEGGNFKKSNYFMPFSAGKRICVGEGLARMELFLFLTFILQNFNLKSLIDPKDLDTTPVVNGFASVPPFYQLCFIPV

As to `COc1ccc(CNC(=O)N(C)C[C@H]2OCc3ccccc3-c3c(n(C)c4ccccc34)C(=O)N([C@H](C)CO)C[C@@H]2C)cc1`, the AC50 in data set [1] was < 0.26 µM (active); in data set [2], < 0.26 µM (active); in [3] it was < 0.26 µM (active); in data set [4], 60.8 µM (active).

As for `CCCc1cc2c(cc1NC(=O)c1ccc(Br)cc1)OCO2`, the AC50 is 2.82 µM (inconclusive) at Cytochrome P450 2C9 [5], 0.708 µM (inconclusive) on Cytochrome P450 2D6 and 1.26 µM (inconclusive) at Cytochrome P450 1A2. The IC50 in the data set with H9c2 is > 79 µM (inactive).

Consider `CCOC(=O)C1(CCc2ccccc2)CCN(Cc2cccc3c2OCO3)CC1`, for which, in [6], the EC50 was 0.668 µM (active).

Turning to `Cc1ccc(S(=O)(=O)Nc2ccc3c(c2)CC(=O)N([C@@H](C)CO)C[C@@H](C)[C@@H](CN(C)Cc2ccc(-c4ccccc4)cc2)O3)cc1`, the AC50 in data set [7] was 3.03 µM (active).

Turning to `Cc1c(N(C)S(=O)(=O)c2cc(C(=O)NCC3CCCO3)ccc2Cl)c(=O)n(-c2ccccc2)n1C` (configuration not stated), in [6], the EC50 is 1.88 µM (active).

For the compound `Cc1noc(C)c1S(=O)(=O)Nc1ccc2c(c1)CC(=O)N([C@H](C)CO)C[C@@H](C)[C@@H](CN(C)Cc1ccc(C(=O)Nc3ccccc3N)cc1)O2`, the AC50 in data set [7] was 3.1 µM (active).

With `Cc1c(CCOC(=O)C23CC4CC(CC(C)(C4)C2)C3)sc[n+]1CC(=O)c1ccccc1`, the AC50 is 5.44 µM (active) in [1]; 8.8 µM (active) in [2]; 1.96 µM (active) in data set [3]; 20.5 µM (active) in data set [4]; 5.26 µM (active) in [8].

In the case of `Br.CCCCN1C2=NCCCN2c2ccccc21`, the AC50 result at Cytochrome P450 2C9 [9] and on Cytochrome P450 2C19 was “inconclusive” throughout.

For the compound `CC(C)CO/N=C1/[C@H]2O[C@@H]2[C@@H](O)[C@H]2[C@H]1CCn1c(=O)n(-c3ccccc3)c(=O)n12`, on Cytochrome P450 2C9 [9], the AC50 result is “inconclusive”.

Consider `NC1=NC2=C(CCCC2)C2(CCCCC2)S1`, for which the EC50 in data set [10] is 9.28 µM (active); in [6], 1.19 µM (active); in [11], > 120 µM (not active); in [12] it was 34.5 µM (active).

For the compound `CCOC(=O)C1(Cc2cccc(OC)c2)CCN(Cc2ccc(OC)c(O)c2)CC1`, the EC50 in data set [6] was 0.944 µM (active).

For `O=C(O)c1cc2ccccc2c(N=Nc2cccnc2)c1O`, the AC50 in data set [13] was 11.4 µM (active).

Take `Cc1nc2nc(C)c(NS(=O)(=O)c3ccc4c(c3)CCCC4)c(O)n2n1`: the AC50 in data set [13] was 136 µM (active).

As to `COc1ccc(CNc2ncnc3ccc(-c4ccccc4CN(C)C)cc23)c(OC)c1`, the AC50 entry was “inconclusive” at Cytochrome P450 2C9 [9] and 31.6 µM (inconclusive) on Cytochrome P450 1A2.

On to `Cc1cccc(Cn2c(C(C)(C)C)cc3cccnc32)c1`, for which the EC50 in data set [6] was 0.531 µM (active).

For `COc1ccc(S(=O)(=O)N2CCC[C@H]2C(=O)NC2=NCCS2)cc1`, the AC50 result at Cytochrome P450 2C9 [9] is “inconclusive”; on Cytochrome P450 3A4 it was 17.8 µM (inconclusive); on Cytochrome P450 2C19 (read-out: AC50), 35.5 µM (inconclusive).

`O=C(c1cccc(F)c1)N1CCC2(CCCN(c3ncccn3)C2)CC1`: the half-maximal activity concentration (AC50) on Cytochrome P450 2D6 is 31.6 µM (inconclusive); at Cytochrome P450 1A2, 25.1 µM (inconclusive).

In the case of `Cc1cccc(C(=O)Nc2nnc(-c3ccc(C(C)(C)C)cc3)s2)c1`, on Cytochrome P450 2C9 [9], the AC50 entry is listed as “inconclusive”.

With `COc1ccc(-n2c(=O)c(-c3cn(C)c4ccccc34)nc3cncnc32)cc1`, the AC50 result at Cytochrome P450 2C9 [9] is recorded as “inconclusive”.

Consider `C[C@H]1CN([C@@H](C)CO)C(=O)c2cccc(NS(=O)(=O)c3ccccc3)c2O[C@H]1CN(C)Cc1ccc(Oc2ccccc2)cc1`, for which the AC50 in data set [7] was 6.61 µM (active).

As for `CC(=O)N1CCc2cc(S(=O)(=O)N3CCN(c4ccc(Cl)cc4)CC3)ccc21`, the IC50 in the data set with HEK293 and on Tumor necrosis factor was > 20 µM (inactive) throughout.

As to `CC1(C)CC2=Nc3ccccc3NC(c3ccccc3F)C2=C(O)C1` (configuration not stated), the IC50 in [14] and in data set [15] was > 66 µM (inactive) in each case.

In the case of `Cc1c(C(=O)c2ccc3ccccc3c2)c2cccc3c2n1[C@H](CN1CCOCC1)CO3`, the AC50 entry on Cytochrome P450 2C9 [9] is reported as “inconclusive”.

Regarding `CN(CC(=O)Nc1cccc(F)c1)C(=O)CNS(=O)(=O)c1ccc(N(C)C)c([N+](=O)[O-])c1`, the IC50 in data set [14] and in [15] was > 66 µM (inactive) in each case.

As to `CN1CCN(C2=C(Cl)C(=O)N(CCc3ccccc3)C2=O)CC1`, the IC50 in data set [14] is > 66 µM (inactive); in [15], 49.1 µM (inactive).

As to `C[C@@H]1CCCCO[C@H](CN(C)CC2CCCCC2)[C@@H](C)CN([C@H](C)CO)C(=O)c2cc(NC(=O)Nc3ccc(F)cc3)ccc2O1`, the AC50 in data set [7] is 2.33 µM (active).

In the case of `COc1ccc(C)cc1-n1nnnc1SCn1nnc2ccccc2c1=O`, the IC50 in [14] and in data set [15] was > 66 µM (inactive) each time.

`Cc1noc(C)c1S(=O)(=O)Nc1ccc2c(c1)CC(=O)N([C@H](C)CO)C[C@@H](C)[C@H](CN(C)Cc1ccc(Cl)c(Cl)c1)O2`: in [7], the AC50 is 6.32 µM (active).

On to `CNCc1c(OCc2ccccc2)ccc2ccccc12`, for which the EC50 in [6] is 3.76 µM (active).
